# Assay results taken from US8748423B2, “Compositions and methods for the prevention and treatment of cancer” (Kinex Pharmaceuticals, LLC, priority 2010, dated 2014).
# Values joined by “and” are separate entries in the source; they are usually repeats but may differ in a detail not shown here. Equal values may be shown once. “Also recorded” adds a separate entry of the source.
# Columns and labels:
# Daoy = assay: brain tumor cell line growth inhibition, Daoy; format: cell-based; details: Homo sapiens, desmoplastic cerebellar medulloblastoma
# Method: (§1) These GI50s were determined using standard tumor growth inhibition assays.
# SW1088 = assay: brain tumor cell line growth inhibition, SW1088; format: cell-based; details: Homo sapiens; SW1088, astrocytoma
# Method: as §1
# U87 = assay: brain tumor cell line growth inhibition, U87; format: cell-based; details: Homo sapiens, U-87 MG; U87, glioblastoma; astrocytoma
# Method: as §1
# GL261 glioma [1] = assay: intracranial GL261 glioma survival study; format: in vivo, C57BL/6 mice
# Method: The studies were conducted in C57BL/6 mice. GL261 glioma cells (1×10^5 in 5 μl DMEM) were implanted intracranial coordinates: bregma, lateral 2.0 mm, anterior 1.2 mm, 3.0 mm depth dura. Treatment was initiated 3 days post implantation.
# The median survival range and the log-rank (Mantel-Cox) statistical test results comparing the survival distributions of the samples.
# GL261 glioma [2] = assay: orthotropic GL261 glioma model, immune-competent mice; format: in vivo, C57BL/6 mice
# Description: (§2) FIGS. 4A-C are a series of graphs showing the survival of C57BL6 mice with intracerebral GL261 glioma implants. Mice received intracerebral implants of 1×10^5 GL261 cells by stereotactic injection at 2 mm lateral, 1 mm anterior to bregma at 3 mm depth. After 4 days mice began indicated regimen of oral Compound 76. […] Compound 76 extended median survival from 21 to 29 days (range). n=10. […] Compound 76 extended median survival >100 days (range), with up to 60% of drug treated mice experiencing complete tumor regression, n=10. Long term survivors were confirmed tumor free by high field MRI in FIG. 6. […] See high field MRI in FIG. 6
# (§3) Compound 76 was also evaluated in the orthotropic GL261 glioma model in immune-competent, syngeneic C57BL/6 mice. Mice implanted intracerebrally with 1×10^5 GL261 cells treated with vehicle alone (saline) have a median survival time (MeST) of 21 days (range 18-28). Mice treated by oral Compound 76 (30 mg/kg, b.i.d.) have a MeST of 30.5 days ranging 23-32 days. In contrast, when Compound 76 is given orally at (30 mg/kg, s.i.d.) the MeST increases to over 120 days, with more than 60% of the treatment group still alive 12 months later (p<0.0001). […] Further experiments were performed using a SCID version of C57BL/6 mice (B6.CB17-Prkdc^scid/SzJ), a mouse model of B6 background, but is immune-compromised.
# as §3, with “was” for “was also”
# GL261 glioma [3] = assay: GL261 intracerebral tumors in SCID mice; format: in vivo, B6.CB17-Prkdc^scid/SzJ mice
# Description: as §2, §3
# as §3, with “was” for “was also”
# survivin = assay: additional molecular studies, survivin
structure (smiles),measurement,setting,value
O=C(Cc1ccc(-c2ccc(N3CCOCC3)cc2)cn1)NCc1cccc(F)c1 [Compound 76],IC50,Daoy,54.9 nM
same,IC50,SW1088,22.1 nM
same,IC50,U87,9.7 nM
same,Median survival,GL261 glioma [1]; 15 mg/kg bid oral,30.5
same,survival Range,GL261 glioma [1]; 15 mg/kg bid oral,25-34
same,Median survival,GL261 glioma [1]; 30 mg/kg bid oral,29
same,survival Range,GL261 glioma [1]; 30 mg/kg bid oral,23-32
same,residual tumor by MRI,"GL261 glioma [2]; 30 mg/kg s.i.d., C57BL/6 mice",no residual tumor is observed
same,histopathology of tumor site / residual GL261 glioma,GL261 glioma [2]; Compound 76 treated mice,large areas of necrosis and lymphocytic infiltration; also recorded: lymphocytic infiltration of the tumor site
same,brain edema,GL261 glioma [2]; compared with placebo or Temodar treated mice,much less brain edema
same,"median survival time (MeST), range","GL261 glioma [2]; oral 30 mg/kg, b.i.d.",23 to 32 days
same,median survival time (MeST),"GL261 glioma [2]; oral 30 mg/kg, b.i.d. (twice daily), vehicle 21 days, 30 mg/kg",29 days and 30.5 days
same,treatment group still alive 12 months later,"GL261 glioma [2]; oral 30 mg/kg, s.i.d.",more than 60%
same,growth rate of intracerebral GL261 glioma,GL261 glioma [2]; relative to control groups,very significantly slows the rate of tumor growth; also recorded: slows the growth rate
same,treated mice with complete tumor regression,GL261 glioma [2]; single dose per day (s.i.d.),up to 60%
same,"median survival time (MeST), range",GL261 glioma [3],29 to 75 days
same,tumor reoccurrence by MRI,GL261 glioma [3]; after drug was discontinued,tumor reoccurrence; also recorded: all proceeded to develop lethal GL261 gliomas
same,long term survivors,GL261 glioma [3]; oral 30 mg/kg once daily,no long term survivors
same,median survival time (MeST),"GL261 glioma [3]; oral 30 mg/kg once daily, 30 mg/kg",29 days and 40 days
same,effect on intracellular survivin,survivin,increased expression and altered the localization of intracellular survivin
